# Source: PMC13489962, “Small-molecule modulation of β-arrestins” (Nature, 2026)
# “Also recorded” adds a separate entry of the source.
# What was measured:
# βARR2 = target: T1, βARR2 (Rattus norvegicus, UniProt P29067); experiment: ITC binding to βARR2; details: for stoichiometry N, βARR2 / Kd: ITC; for Kd: 25 °C, one-site model; for β-arrestin isoform preference: from ITC
# T1 construct: βARR1 or βARR2 construct, with their C terminus truncated (at amino acid 393 or 394, respectively); GST (pGEX4T1) (N, cleaved yes); made in house; host or cells: E. coli BL21 (DE3) pLysS
# Description: The expression and purification of β-arrestins have been described previously[44],[62]–[64]. In brief, E. coli BL21 (DE3) pLysS cells (New England Biolabs: C2527I) carrying pGEX4T1-Rattus norvegicus βARR1 or βARR2 construct, with their C terminus truncated (at amino acid 393 or 394, respectively), were cultured in Terrific Broth (Teknova) medium at 37 °C. After OD600 reached 0.6–0.8, the cells were induced with 0.1 mM isopropyl-β-D-thiogalactopyranoside (IPTG) at 18 °C overnight. Bacteria were collected by centrifugation (4,000 rpm), and cell pellets were resuspended in lysis buffer (20 mM HEPES, pH 8, 150 mM NaCl, 10% glycerol, 1 mM EDTA, 0.2 mM dithiothreitol (DTT), 1 mM phenylmethylsulfonyl fluoride, and 1 mM benzamidine) at 4 °C for 1 h. Cell suspensions were sonicated, centrifuged (14,000 rpm, 30 min, 4 °C), and the supernatant was loaded onto pre-equilibrated glutathione–agarose resin (GoldBio). After 3 h of binding at 4 °C, the beads were washed, and thrombin was added for overnight cleavage. The proteins were further purified by anion exchange chromatography followed by size-exclusion chromatography using a Superdex 200 Increase 10/300 GL column on an ÄKTA FPLC system (GE Healthcare). Eluted fractions were analysed by SDS–PAGE, pooled, concentrated using 30 kDa MWCO Amicon Ultra-15 Centrifugal Filter devices, flash-frozen in liquid nitrogen, and stored in aliquots at −80 °C. The same rat βARR1 constructs with mutations (L129A, L129S, L129G, P131A, P133A, E134A, D135A, K138A, C140A, Y249A, C251A, E283A, K284A and R285A) were generated and purified in a similar manner. Recombinant Gα subunits (Gαs, Gαq and Gαi) were purified as GST fusion proteins using glutathione–agarose affinity chromatography as previously described. The heterotrimeric Gs protein complex, composed of Gαs, Gβ1 and Gγ2 subunits, was expressed in Sf9 cells using the baculovirus expression system and purified as previously described. M2R expression, purification and reconstitution into high-density lipoprotein (HDL) particles were performed as previously described. ERK2, SRC, p38α and JNK3 kinases were expressed and purified using previously established protocols[6],[16]. Protein concentrations for each protein were determined by ultraviolet absorption at 280 nm and extinction coefficients estimated using the ExPASy ProtParam tool[67].
# ITC measurements were performed on a MicroCal iTC200 system at 25 °C. Prior to ITC experiments, all proteins (βARR1, βARR2 or βARR1 mutants) were extensively dialysed against 20 mM HEPES (pH 7.4), 100 mM NaCl, and 3 μM TCEP. Protein concentrations were determined by spectrophotometry at 280 nm, using extinction coefficients calculated from each protein sequence via the ProtParam program. The dialysis buffer was used to dilute DMSO stock solutions of β-arrestin small-molecule modulators to their final concentrations for measurements. For each ITC experiment, β-arrestin modulators (Cmpd-5 at 350 μM, Cmpd-46 at 450 μM, and Cmpd-64 at 450 μM) were loaded into the syringe and titrated into the calorimetric cell containing βARR1, βARR1 mutants or βARR2 (at about 30–40 μM, depending on the protein and experiment). Additional ITC experiments were also performed using purified GST-fused Gα subunits (Gαs, Gαq and Gαi; about 30 μM) and Gαiβγ heterotrimer (about 30 μM). Gα subunits were prepared in the same buffer (20 mM HEPES, pH 7.4, 100 mM NaCl, 3 μM TCEP), whereas the Gαiβγ heterotrimer was maintained in buffer supplemented with 0.05% DDM and 10 μM GDP, with matched DMSO carrier conditions. Modulators (300 μM) or corresponding DMSO controls were loaded and titrated as described above. The reference cell was filled with distilled water. In all experiments, the titration sequence typically consisted of an initial 0.4 μl injection, followed by 19 injections of 2 μl each, with a 180-s interval between injections to allow thermal power to return to baseline. […]
# [1] = tested on: adult ventricular cardiomyocytes (AT1R); experiment: Adult ventricular cardiomyocyte contractility; type: cell-based, mouse; details: 25 μM, 20 min; TRV027 10 μM; paced at 1 Hz
# Description: All animal experiments were approved by the Institutional Animal Care and Use Committee (IACUC) at Duke University Medical Center and performed in accordance with relevant guidelines and regulations. Ventricular cardiomyocytes were freshly isolated from 12- to 16-week-old C57BL/6J wild-type mice using a standard Langendorff perfusion system[39],[74]. The heart was initially cannulated through the aorta and then perfused with an oxygenated buffer at 37 °C (120 mM NaCl, 14.8 mM KCl, 0.6 mM KH2PO4, 0.6 mM Na2HPO4, 1.2 mM MgSO4·7H20, 10 mM HEPES, 4.6 mM NaHCO3, 30 mM taurine, and 5.6 mM glucose, pH 7.3). After 2 min, the buffer was switched to a digestion solution containing 2.4 mg ml^−1 collagenase (Worthington). Following 8 min of digestion, ventricles were transferred to a stopping buffer that included 10% calf serum. Myocytes were then manually dissociated and gradually brought to a physiological Ca^2+ concentration (1.2 mM). Isolated cardiomyocyte was first pretreated with DMSO (0.1%), C5, C46 or C64 (25 µM) for 20 min followed by treatment with HBSS (basal), angiotensin II (positive control, 10 µM) or TRV027 (10 µM). Cells were plated in a chamber (Ionoptix) on a Nikon Eclipse TE300 inverted microscope (40× 0.9 NA objective, MRF00400, Nikon). Cardiomyocytes were paced at 1 Hz and 20 V (MyoPacer, Ionoptix), and sarcomere length was recorded by a MyoCam-S camera (Ionoptix). Ten consecutive contractions per cell (7–12 cells per condition) were averaged to quantify contractility and kinetic parameters (IonWizard 7.2). […] Sample size represents the number of hearts at each condition derived from an average of 7–12 cells per heart for each condition. Statistical comparisons between conditions were performed using one-way ANOVA followed by Sidak post hoc test.
# T1 sequence (P29067 1-394): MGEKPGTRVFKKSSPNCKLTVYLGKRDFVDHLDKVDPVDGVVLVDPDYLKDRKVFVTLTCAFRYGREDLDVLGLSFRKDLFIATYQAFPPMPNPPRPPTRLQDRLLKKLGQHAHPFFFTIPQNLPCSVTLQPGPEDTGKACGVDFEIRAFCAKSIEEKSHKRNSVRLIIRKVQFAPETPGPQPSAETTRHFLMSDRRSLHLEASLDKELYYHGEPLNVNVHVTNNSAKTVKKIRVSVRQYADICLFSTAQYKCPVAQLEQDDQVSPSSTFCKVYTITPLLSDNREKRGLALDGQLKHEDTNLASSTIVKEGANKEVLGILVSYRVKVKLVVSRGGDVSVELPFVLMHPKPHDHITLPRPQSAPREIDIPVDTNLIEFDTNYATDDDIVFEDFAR
SMILES,"stoichiometry N, βARR2 (βARR2)",Kd (βARR2),β-arrestin isoform preference (βARR2),"effect on TRV027-enhanced sarcomere shortening, contraction and relaxation velocity [1]"
"C=C1C(=O)[C@]23[C@H](O)[C@H]1CC[C@H]2[C@@]12CO[C@]3(O)[C@@H](O)[C@@H]1C(C)(C)CC[C@@H]2O [Cmpd-5, (1S,4aR,5S,6S,6aR,9S,11aS,11bS,14R)-1,5,6,14-tetrahydroxy−4,4-dimethyl-8-methylenedecahydro-1H-6,11b-(epoxymethano)-6a,9-methanocyclohepta[a]naphthalen-7(8H)-one]",0.84,563 ± 45 nM,bound both isoforms comparably; also recorded: bound each isoform similarly,significantly inhibited
"C=C1C(=O)C2=CC1CCC(=O)C1(C)CCC(OCC)C(C)(C)C1CC2O (centres unmarked) [Cmpd-46, (Z)-3-ethoxy-6-hydroxy-4,4,13a-trimethyl-9-methylene-1,2,3,4,4a,5,6,9,10,11,12,13a-dodecahydro-7,10-(metheno)benzo[11]annulene-8,13-dione]",0.94,753 ± 54 nM,slight βarr2 preference; also recorded: modest βARR2 preference,significantly inhibited
"C=C1C(=O)OC2CC3(C)OC3CCC(C)=CC(OC(C)=O)C12 (centres unmarked) [Cmpd-64, (Z)-4,10a-dimethyl-7-methylene-8-oxo-1a,2,3,6,6a,7,8,9a,10,10a decahydrooxireno[2’,3’:8,9]cyclodeca[1,2-b]furan-6-yl acetate]",0.91,207 ± 54 nM,,significantly inhibited
